In patent US5830903A, “Triazole substituted quinoline derivatives for gastrointestinal treat-treatment” (Alkaloida Chemical Co., Ltd., priority 1993, dated 1998):
Marks after values point to notes of the source that are not given here.

Columns and labels:
Acute toxicity in rats = conditions: rat, in vivo, po, per os, 14 days
Experimental: (§1) To determine acute toxicity the test substances were administered in increasing doses to CFLP male mice (18-20 g) and to male Wistar rats (150-160 g). The LD50 values were calculated after 14 days of observation according to Litchfield and Wilcoxon.

gastric blood-supply = experiment: Gastric blood-supply, Rb^86 isotope method (Sapirstain); format: in vivo, Wistar female rats; conditions: 100 mg/kg p.o., n = 11, ± SE
Experimental: To investigate influence of gastric blood-supply the tests were carried out according to the method of Sapirstain using Rb^86 isotopes (Circ.Res.4, 689, 1956; Am. J. Physiol. 193. 161,1958). The test substances were administered perorally 2 hours before the experiment started and the degree of blood flow was determined in ml/min/g values. In the experiments the stomachs of Wistar female rats were divided into three segments i.e. pre-stomach, corpus and anthrum.

Acute toxicity in mice = conditions: mouse, in vivo, po, per os, 14 days
Experimental: as §1

[1] = tested on: histamine stimulated hydrochlorid acid secretion; experiment: Histamine stimulated gastric acid secretion in Shay rats; format: in vivo; conditions: for acid secretion μEqu/4^h: p < 0.01
Experimental: The test substances were added on the course of operation intra-duodenally. Immediately after operation each rat obtained 0.50 ml s.c. of a physiological salt solution for hydration. After 4 hours the rats were over-anesthesized, the stomach liquid was collected, centrifugated and the volume determined. […] Measurement of stimulated secretion of gastric acid was also carried out according to the above method.

[2] = tested on: basic gastric acid secretion; experiment: Basic gastric acid secretion in Shay rats (pylorus ligation); format: in vivo; conditions: for acidity μEqu/ml / volume: 4 h
Experimental: The pilorus of Shay rats of 150-170 g weight was tied in ether narcosis /Gastroenterology 5,43,1945/. The test substances were added on the course of operation intra-duodenally. Immediately after operation each rat obtained 0.50 ml s.c. of a physiological salt solution for hydration. After 4 hours the rats were over-anesthesized, the stomach liquid was collected, centrifugated and the volume determined. Acidity of the secretion was determined with 0.1N aqueous sodium hydroxide in the presence of a Tobfler reagent.

[3] = tested on: lesions caused by intomethacin; experiment: Indomethacin-induced gastric lesions; format: in vivo, female OFA-rats; conditions: Rattus norvegicus, po, 60 min before 20 mg/kg indomethacin; 6 h; from ulcer index; confidence limits 95%; read-out: ED50 mg/kg (p.o.)
Experimental: The compounds were administered in a volume of 0.5 ml/100 g in a suspension prepared in water with 2-4% Tween-80. After 6 hours the animals were over-anesthesized and their stomachs were opened along the greater curvature. The preparations were investigated by stereomicroscopy using an 8-fold enlargement. The number, size and incidence of erosions and ulcers was noted and compared with the control group treated with the carrier only.
The size of the ulcers was determined on the basis of the following score:
1: ulcer or erosion of the size of 1-2 mm;
2: ulcer or erosion of the size of 2-3 mm;
3: ulcer or erosion of the size of 3-4 mm;
4: ulcer longer than 4 mm;
5: ulcer longer and broader than 4 mm.
The ED50 values were calculated on the basis of ulcer-indexes:
ulcer index=/severeity of lesion x number of lesions/number of animals /n/

[4] = tested on: lesions induced with hydrochloric acid and ethanol; experiment: Gastric haemorrhages induced by hydrochloric acid in ethanol (cytoprotection); format: in vivo, female rats; conditions: for average length of haemmorrhages, change in %: treated vs control
Experimental: The volume of treatment was 0.5 ml/100 g. […] The average degree of haemorrhages of the treated groups was compared to the control groups treated with the vehicle only. Number of animals was 6-18 in each group.

[5] = tested on: ulcers induced by reserpine; experiment: Reserpine induced ulcers; format: in vivo, female OFA rats; conditions: 40 mg/kg p.o.; reserpine 5 mg/kg s.c.; 18 h
Experimental: Female OFA rats of 130-160 g weight, starved for 24 hours, were treated at the same time perorally with 40 mg/kg doses of the substances to be tested and with 5 mg/kg s.c. doses of reserpine. After 18 hours the animals were over-anesthesized and the removed stomachs were investigated under stereomicroscope using a 8-fold enlargement. The number of ulcers was counted and their size was evaluated using 0-0.5-1-2-4-8-16-32 scores. The number of animals was 5 for each dose.

[6] = tested on: lesions caused by the NSAID piroxicam; experiment: Piroxicam-induced gastric erosions, test substance 1 hour after piroxicam; format: in vivo, WISTAR rats; conditions: n = 7
Experimental: (§2) Administration of the test substances followed 1 hour after injection. After 4 hours the animals were over-anesthesized with ether and the changes (erosions) were evaluated as in Example I.1. The size of the lesions was characterized by way of the ulcer index.

[7] = tested on: stress ulcer caused by immersion; experiment: Stress ulcer caused by immersion; format: in vivo, Wistar rats
Experimental: 30 minutes after peroral treatment with the test substance, […]. After seven hours the glandular lesions appearing in the stomach were evaluated according to the score described in Example I.1.

[8] = tested on: lesions caused by the NSAID naproxen; experiment: Naproxen-induced gastric erosions, test substance 1 hour after naproxen; format: in vivo, WISTAR rats; conditions: n = 7
Experimental: as §2

[9] = tested on: alcohol induced increase of gastric glandular capillary permeability; experiment: Alcohol induced increase of gastric glandular capillary permeability; format: in vivo, rats; conditions: for Evans-blue: p < 0.05
Experimental: After 13 minutes 1 ml of 100% ethanol was added perorally and after further 2 minutes the stomachs were removed and their weights measured. […]

[10] = histamine 10 mg/kg s.c. + 5 mg/kg i.d., p < 0.05
[11] = 25 mg/kg p.o., n = 10, p < 0.01
[12] = naproxen 75 mg/kg po. + 20 mg/kg po.

c1ccc2c(-n3cncn3)ccnc2c1 [Substance 1, 4-(1H-1,2,4-triazole-1-yl)-quinoline]
LD50 at 336 h (Acute toxicity in rats): 560 mg/kg | blood flow, pre-stomach (gastric blood-supply; control 0.23 ± 0.03): 0.19 ± 0.01 mL/min/g | blood flow, corpus (gastric blood-supply; control 0.51 ± 0.03, p < 0.02): 0.70 ± 0.09 mL/min/g | blood flow, anthrum (gastric blood-supply; control 0.71 ± 0.07): 1.01 ± 0.07 mL/min/g | LD50 at 336 h (Acute toxicity in mice): 840 mg/kg | acid secretion μEqu/4^h ([1]; histamine 10 mg/kg s.c. + 5 mg/kg i.d.): 180 ± 12 μEqu/4^h | acidity μEqu/ml [1, 10]: 105 ± 10 μEqu/ml | volume/4^h [1, 10]: 1.7 ± 0.2 mL | acid secretion μEqu/4^h ([1]; histamine s.c. + 10 mg/kg i.d.): 111 ± 9 μEqu/4^h | acidity μEqu/ml ([1]; histamine s.c. + 10 mg/kg i.d., p < 0.05): 123 ± 8 μEqu/ml | acidity μEqu/ml ([2]; dose 5 i.d.): 105 ± 5 μEqu/ml | volume ([2]; dose 5 i.d., p < 0.05): 1.4 ± 1.24 mL | acid secretion μEqu/4^h ([2]; dose 5 i.d., p < 0.05): 147.0 ± 0.19 μEqu/4^h | acidity μEqu/ml ([2]; dose 10 i.d., not possible to titrate part of the secretion because of small volume): 61 ± 5 μEqu/ml | volume ([2]; dose 10 i.d., p < 0.01): 0.58 ± 0.1 mL | acid secretion μEqu/4^h ([2]; dose 10 i.d., p < 0.01): 42.0 ± 0.3 μEqu/4^h | ED50 [3]: 13 mg/kg | average length of haemmorrhages, treated ([4]; 2.3 mg/kg p.o., n = 12, control 95.7 ± 9.4): 91.0 ± 9.4 mm | average length of haemmorrhages, change in % ([4]; 2.3 mg/kg p.o.): -4% | average length of haemmorrhages, treated ([4]; 5.0 mg/kg p.o., n = 18, control 92.9 ± 6.3): 39.7 ± 8.1 mm | average length of haemmorrhages, change in % ([4]; 5.0 mg/kg p.o.): -57% | average length of haemmorrhages, treated ([4]; 10.0 mg/kg p.o., n = 18, control 61.3 ± 9.8): 14.2 ± 7.4 mm | average length of haemmorrhages, change in % ([4]; 10.0 mg/kg p.o.): -77% | number of ulcers, %change compared with control [5]: +4% | severity of ulcers, %change compared with control [5]: +9% | ulcers per treated [5]: 5/5 | inhibition % ([6]; piroxicam 60 mg/kg po. + 20 mg/kg po.): 84% | ulcus index ± SEM ([6]; piroxicam 60 mg/kg po. + 20 mg/kg po., p < 0.05): 3.8 ± 0.4 | inhibition % ([6]; piroxicam, 30 mg/kg po.): 93% | ulcus index ± SEM ([6]; piroxicam, 30 mg/kg po., p < 0.01): 1.8 ± 0.5 | erosion inhibition % ([7]; 10 mg/kg p.o., n = 7): 21% | erosion ulcus-index mm ([7]; 10 mg/kg p.o., n = 7): 33.6 ± 10.2 mm | hyperemia inhibition % ([7]; 10 mg/kg p.o., n = 7): 29% | hyperemia ulcer-index mm ([7]; 10 mg/kg p.o., n = 7): 64.3 ± 8.6 mm | erosion ulcus-index mm ([7]; 25 mg/kg p.o., n = 10): 12.1 ± 3.6 mm | hyperemia ulcer-index mm ([7]; 25 mg/kg p.o., n = 10): 35.8 ± 9.4 mm | erosion inhibition % [7, 11]: 71% | hyperemia inhibition % [7, 11]: 55% | erosion ulcus-index mm ([7]; 50 mg/kg p.o., n = 7): 5.7 ± 1.5 mm | hyperemia ulcer-index mm ([7]; 50 mg/kg p.o., n = 7): 11.4 ± 2.8 mm | erosion inhibition % ([7]; 50 mg/kg p.o., n = 7, p < 0.01): 87% | hyperemia inhibition % ([7]; 50 mg/kg p.o., n = 7, p < 0.01): 85% | inhibition of hyperemia and erosion (in words) ([7]; substance 1 at 50 mg/kg p.o., cimetidine): significally inhibit hyperemia and erosion | inhibition % [8, 12]: 39% | ulcus index ± SEM [8, 12]: 15.6 ± 6.4 | inhibition % ([8]; naproxen, 30 mg/kg po.): 95% | ulcus index ± SEM ([8]; naproxen, 30 mg/kg po., p < 0.01): 1.2 ± 0.5 | alcohol-induced lesions (in words) ([9]; 10 and 20 mg/kg): alcohol-induced lesions are reduced | stomach ([9]; 100% ethanol + 10 mg/kg): 0.91 ± 0.1 g | Evans-blue ([9]; 100% ethanol + 10 mg/kg): 4.55 ± 0.3 µg/g | stomach ([9]; 100% ethanol + 20 mg/kg): 0.93 ± 0.1 g | Evans-blue ([9]; 100% ethanol + 20 mg/kg): 4.4 ± 0.23 µg/g
